# From ChEMBL document CHEMBL4364294 (J Med Chem, 2019)
# What was measured:
# [1] = Intrinsic clearance in human liver microsomes; format: ADME, Microsome; details: read-out: CLH
# [2] = Aqueous solubility of the compound at pH 7.4; format: physicochemical
# [3] = Aqueous solubility of the compound at pH 6.5; format: physicochemical
# [4] = Aqueous solubility of the compound at pH 1; format: physicochemical
predicted hepatic clearance [1],solubility [2],solubility [3],solubility [4],Structure (SMILES)
6.2 mL/min/kg,,,,O[C@@H](C[C@H]1c2c(F)cccc2-c2cncn21)[C@H]1CC[C@H](O)CC1
4.06 mL/min/kg,316 µM,329 µM,353 µM,OC1CCC(C(O)CC2c3c(F)cccc3-c3cncn32)CC1 (stereo unspecified)
18.5 mL/min/kg,,,,O[C@H](C[C@H]1c2c(F)cccc2-c2cncn21)[C@H]1CC[C@@H](O)CC1
